Laboratory results taken from ChEMBL document CHEMBL4507300 (2021).

What was measured:
[1] = biological target: Serine/threonine-protein kinase Sgk2 (Homo sapiens) (UniProt Q9HBY8); conditions: Compound concentration 1000.0 nM
[2] = tested on: Tyrosine-protein kinase ABL1 (Homo sapiens), P00519 [F317L]; conditions: Compound concentration 1000.0 nM
[3] = biological target: Misshapen-like kinase 1 (Homo sapiens) (UniProt Q8N4C8); conditions: Compound concentration 1000.0 nM
[4] = biological target: Kappa-type opioid receptor (Homo sapiens) (UniProt P41145); conditions: Compound concentration 10.0 uM
[5] = biological target: Tyrosine-protein kinase ABL2 (Homo sapiens) (UniProt P42684); conditions: Compound concentration 1000.0 nM
[6] = biological target: Inhibitor of nuclear factor kappa-B kinase subunit epsilon (Homo sapiens) (UniProt Q14164); conditions: Compound concentration 1000.0 nM
[7] = biological target: Bone morphogenetic protein receptor type-2 (Homo sapiens) (UniProt Q13873); conditions: Compound concentration 1000.0 nM
[8] = biological target: Serine/threonine-protein kinase NIM1 (Homo sapiens) (UniProt Q8IY84); conditions: Compound concentration 1000.0 nM
[9] = biological target: Serine/threonine-protein kinase 4 (Homo sapiens) (UniProt Q13043); conditions: Compound concentration 1000.0 nM
[10] = biological target: Glycogen synthase kinase-3 beta (Homo sapiens) (UniProt P49841); conditions: Compound concentration 1000.0 nM
[11] = biological target: Tyrosine-protein kinase HCK (Homo sapiens) (UniProt P08631); conditions: Compound concentration 1000.0 nM
[12] = biological target: Tyrosine-protein kinase receptor UFO (Homo sapiens) (UniProt P30530); conditions: Compound concentration 1000.0 nM
[13] = biological target: Mitogen-activated protein kinase 15 (Homo sapiens) (UniProt Q8TD08); conditions: Compound concentration 1000.0 nM
[14] = tested on: Tyrosine-protein kinase ABL1 (Homo sapiens), P00519 [F317I]; conditions: Compound concentration 1000.0 nM
[15] = biological target: Serine/threonine-protein kinase Nek4 (Homo sapiens) (UniProt P51957); conditions: Compound concentration 1000.0 nM
[16] = biological target: Cyclin-G-associated kinase (Homo sapiens) (UniProt O14976); conditions: Compound concentration 1000.0 nM
[17] = biological target: Cyclin-dependent kinase-like 2 (Homo sapiens) (UniProt Q92772); conditions: Compound concentration 1000.0 nM
[18] = tested on: Epidermal growth factor receptor (Homo sapiens), P00533 [UNDEFINED MUTATION]; conditions: Compound concentration 1000.0 nM
[19] = biological target: Tyrosine-protein kinase Fgr (Homo sapiens) (UniProt P09769); conditions: Compound concentration 1000.0 nM
[20] = biological target: Cyclin-dependent kinase 3 (Homo sapiens) (UniProt Q00526); conditions: Compound concentration 1000.0 nM
[21] = biological target: Myotonin-protein kinase (Homo sapiens) (UniProt Q09013); conditions: Compound concentration 1000.0 nM
[22] = biological target: Cyclin-dependent kinase 13 (Homo sapiens) (UniProt Q14004); conditions: Compound concentration 1000.0 nM
[23] = biological target: Mitogen-activated protein kinase 6 (Homo sapiens) (UniProt Q16659); conditions: Compound concentration 1000.0 nM
[24] = biological target: Cyclin-dependent kinase 2 homolog (Plasmodium falciparum (isolate 3D7)) (UniProt P61075); conditions: Compound concentration 1000.0 nM
[25] = biological target: Mitogen-activated protein kinase kinase kinase 13 (Homo sapiens) (UniProt O43283); conditions: Compound concentration 1000.0 nM
[26] = biological target: Phosphatidylinositol 4-phosphate 5-kinase type-1 alpha (Homo sapiens) (UniProt Q99755); conditions: Compound concentration 1000.0 nM
[27] = biological target: Ephrin type-A receptor 8 (Homo sapiens) (UniProt P29322); conditions: Compound concentration 1000.0 nM
[28] = biological target: Proto-oncogene tyrosine-protein kinase ROS (Homo sapiens) (UniProt P08922); conditions: Compound concentration 1000.0 nM
[29] = tested on: Tyrosine-protein kinase ABL1 (Homo sapiens), P00519 [M351T]; conditions: Compound concentration 1000.0 nM
[30] = biological target: Tyrosine-protein kinase Fes/Fps (Homo sapiens) (UniProt P07332); conditions: Compound concentration 1000.0 nM
[31] = biological target: Ribosomal protein S6 kinase alpha-6 (Homo sapiens) (UniProt Q9UK32); conditions: Compound concentration 1000.0 nM
[32] = biological target: Glycogen synthase kinase-3 alpha (Homo sapiens) (UniProt P49840); conditions: Compound concentration 1000.0 nM
[33] = biological target: Receptor tyrosine-protein kinase erbB-4 (Homo sapiens) (UniProt Q15303); conditions: Compound concentration 1000.0 nM
[34] = biological target: Serine/threonine-protein kinase Chk2 (Homo sapiens) (UniProt O96017); conditions: Compound concentration 1000.0 nM
[35] = biological target: Protein kinase C eta type (Homo sapiens) (UniProt P24723); conditions: Compound concentration 1000.0 nM
[36] = biological target: Serine/threonine-protein kinase 35 (Homo sapiens) (UniProt Q8TDR2); conditions: Compound concentration 1000.0 nM
[37] = biological target: Mitogen-activated protein kinase 14 (Homo sapiens) (UniProt Q16539); conditions: Compound concentration 1000.0 nM
[38] = biological target: Protein kinase C theta type (Homo sapiens) (UniProt Q04759); conditions: Compound concentration 1000.0 nM
[39] = biological target: SNF-related serine/threonine-protein kinase (Homo sapiens) (UniProt Q9NRH2); conditions: Compound concentration 1000.0 nM
[40] = biological target: Serine/threonine-protein kinase Chk1 (Homo sapiens) (UniProt O14757); conditions: Compound concentration 1000.0 nM
[41] = biological target: Serine/threonine-protein kinase 25 (Homo sapiens) (UniProt O00506); conditions: Compound concentration 1000.0 nM
[42] = biological target: Dual specificity tyrosine-phosphorylation-regulated kinase 1A (Homo sapiens) (UniProt Q13627); conditions: Compound concentration 1000.0 nM
[43] = biological target: Serine/threonine-protein kinase Nek11 (Homo sapiens) (UniProt Q8NG66); conditions: Compound concentration 1000.0 nM
[44] = tested on: Receptor-type tyrosine-protein kinase FLT3 (Homo sapiens), P36888 [N841I]; conditions: Compound concentration 1000.0 nM
[45] = biological target: Ribosomal protein S6 kinase alpha-1 (Homo sapiens) (UniProt Q15418); conditions: Compound concentration 1000.0 nM

Receptor tyrosine-protein kinase erbB-4 (Homo sapiens), sequence (Q15303 whole entry): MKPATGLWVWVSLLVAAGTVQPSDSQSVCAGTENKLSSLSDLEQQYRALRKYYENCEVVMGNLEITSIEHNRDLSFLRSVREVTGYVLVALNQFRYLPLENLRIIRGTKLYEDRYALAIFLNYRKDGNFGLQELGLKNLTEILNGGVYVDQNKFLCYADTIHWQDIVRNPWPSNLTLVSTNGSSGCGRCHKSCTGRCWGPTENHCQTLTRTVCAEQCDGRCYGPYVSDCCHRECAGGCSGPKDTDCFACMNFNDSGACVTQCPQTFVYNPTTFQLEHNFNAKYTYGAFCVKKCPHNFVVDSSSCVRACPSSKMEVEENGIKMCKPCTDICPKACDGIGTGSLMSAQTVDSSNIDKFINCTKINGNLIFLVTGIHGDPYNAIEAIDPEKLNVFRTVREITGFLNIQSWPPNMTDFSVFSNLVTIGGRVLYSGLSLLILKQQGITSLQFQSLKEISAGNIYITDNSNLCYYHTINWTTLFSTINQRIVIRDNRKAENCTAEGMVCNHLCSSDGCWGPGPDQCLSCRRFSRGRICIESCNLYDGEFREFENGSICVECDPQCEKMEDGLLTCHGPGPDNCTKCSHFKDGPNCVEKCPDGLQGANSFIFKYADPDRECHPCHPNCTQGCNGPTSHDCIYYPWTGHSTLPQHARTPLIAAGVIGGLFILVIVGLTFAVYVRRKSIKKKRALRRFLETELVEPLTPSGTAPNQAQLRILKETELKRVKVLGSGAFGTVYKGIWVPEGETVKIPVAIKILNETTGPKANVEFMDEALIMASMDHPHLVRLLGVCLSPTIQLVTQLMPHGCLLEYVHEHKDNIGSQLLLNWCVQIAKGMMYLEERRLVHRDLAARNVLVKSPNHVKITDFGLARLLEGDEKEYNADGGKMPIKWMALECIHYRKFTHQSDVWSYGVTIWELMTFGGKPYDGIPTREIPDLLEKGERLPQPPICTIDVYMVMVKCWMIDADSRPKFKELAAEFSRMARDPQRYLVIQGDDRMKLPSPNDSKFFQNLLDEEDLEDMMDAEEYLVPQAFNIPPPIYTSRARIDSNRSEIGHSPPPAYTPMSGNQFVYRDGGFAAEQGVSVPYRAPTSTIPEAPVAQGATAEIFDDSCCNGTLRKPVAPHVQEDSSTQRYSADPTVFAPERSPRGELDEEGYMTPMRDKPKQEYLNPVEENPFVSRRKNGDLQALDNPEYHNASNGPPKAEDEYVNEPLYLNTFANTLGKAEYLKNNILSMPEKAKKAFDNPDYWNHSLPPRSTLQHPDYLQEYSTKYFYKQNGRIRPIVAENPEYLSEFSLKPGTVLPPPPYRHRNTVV
Serine/threonine-protein kinase Sgk2 (Homo sapiens), sequence (Q9HBY8 whole entry): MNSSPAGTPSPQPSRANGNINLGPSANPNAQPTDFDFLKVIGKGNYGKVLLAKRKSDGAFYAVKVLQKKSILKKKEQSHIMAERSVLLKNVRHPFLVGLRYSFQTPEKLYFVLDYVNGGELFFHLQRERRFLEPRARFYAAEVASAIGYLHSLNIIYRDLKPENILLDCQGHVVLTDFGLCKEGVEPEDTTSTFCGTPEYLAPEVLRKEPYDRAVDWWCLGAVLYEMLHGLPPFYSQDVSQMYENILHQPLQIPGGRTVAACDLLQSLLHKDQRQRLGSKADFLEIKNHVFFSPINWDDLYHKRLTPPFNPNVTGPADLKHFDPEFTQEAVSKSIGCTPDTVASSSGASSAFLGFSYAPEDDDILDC
Cyclin-G-associated kinase (Homo sapiens), sequence (O14976 whole entry): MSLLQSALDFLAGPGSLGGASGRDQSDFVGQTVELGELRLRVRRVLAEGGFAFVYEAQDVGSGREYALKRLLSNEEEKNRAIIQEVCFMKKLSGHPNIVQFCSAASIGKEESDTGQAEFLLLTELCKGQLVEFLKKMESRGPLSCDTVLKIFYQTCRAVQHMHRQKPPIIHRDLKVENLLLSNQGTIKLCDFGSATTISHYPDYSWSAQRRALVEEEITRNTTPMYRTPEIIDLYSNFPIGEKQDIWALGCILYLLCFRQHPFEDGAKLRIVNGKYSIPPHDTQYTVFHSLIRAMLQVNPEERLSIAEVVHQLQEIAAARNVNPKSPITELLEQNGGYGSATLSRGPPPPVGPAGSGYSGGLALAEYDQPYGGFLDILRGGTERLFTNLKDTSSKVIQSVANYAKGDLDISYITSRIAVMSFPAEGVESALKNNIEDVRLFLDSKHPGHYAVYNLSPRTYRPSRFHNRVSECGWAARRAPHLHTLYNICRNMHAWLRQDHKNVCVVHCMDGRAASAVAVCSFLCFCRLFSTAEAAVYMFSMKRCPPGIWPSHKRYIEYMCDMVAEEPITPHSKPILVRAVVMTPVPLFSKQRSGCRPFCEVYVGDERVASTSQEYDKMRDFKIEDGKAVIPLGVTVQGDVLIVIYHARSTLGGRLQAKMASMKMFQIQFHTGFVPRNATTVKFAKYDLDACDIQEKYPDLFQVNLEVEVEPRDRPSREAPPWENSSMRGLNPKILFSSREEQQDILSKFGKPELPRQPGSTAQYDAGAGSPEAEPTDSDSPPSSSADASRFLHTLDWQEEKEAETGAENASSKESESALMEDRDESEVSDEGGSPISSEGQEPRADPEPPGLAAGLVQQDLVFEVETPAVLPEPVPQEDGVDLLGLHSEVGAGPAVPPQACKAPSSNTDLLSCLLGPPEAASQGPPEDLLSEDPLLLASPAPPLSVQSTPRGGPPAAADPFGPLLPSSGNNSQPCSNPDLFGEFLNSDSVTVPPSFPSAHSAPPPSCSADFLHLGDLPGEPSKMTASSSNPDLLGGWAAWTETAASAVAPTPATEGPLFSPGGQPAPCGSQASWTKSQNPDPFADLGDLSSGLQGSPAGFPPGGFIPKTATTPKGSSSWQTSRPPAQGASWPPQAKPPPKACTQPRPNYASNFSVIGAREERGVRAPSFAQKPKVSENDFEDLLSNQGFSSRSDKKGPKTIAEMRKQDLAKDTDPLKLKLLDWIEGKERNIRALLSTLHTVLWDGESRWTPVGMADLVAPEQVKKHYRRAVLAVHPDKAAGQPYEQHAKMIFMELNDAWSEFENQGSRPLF
Serine/threonine-protein kinase Nek4 (Homo sapiens), sequence (P51957 whole entry, looked up): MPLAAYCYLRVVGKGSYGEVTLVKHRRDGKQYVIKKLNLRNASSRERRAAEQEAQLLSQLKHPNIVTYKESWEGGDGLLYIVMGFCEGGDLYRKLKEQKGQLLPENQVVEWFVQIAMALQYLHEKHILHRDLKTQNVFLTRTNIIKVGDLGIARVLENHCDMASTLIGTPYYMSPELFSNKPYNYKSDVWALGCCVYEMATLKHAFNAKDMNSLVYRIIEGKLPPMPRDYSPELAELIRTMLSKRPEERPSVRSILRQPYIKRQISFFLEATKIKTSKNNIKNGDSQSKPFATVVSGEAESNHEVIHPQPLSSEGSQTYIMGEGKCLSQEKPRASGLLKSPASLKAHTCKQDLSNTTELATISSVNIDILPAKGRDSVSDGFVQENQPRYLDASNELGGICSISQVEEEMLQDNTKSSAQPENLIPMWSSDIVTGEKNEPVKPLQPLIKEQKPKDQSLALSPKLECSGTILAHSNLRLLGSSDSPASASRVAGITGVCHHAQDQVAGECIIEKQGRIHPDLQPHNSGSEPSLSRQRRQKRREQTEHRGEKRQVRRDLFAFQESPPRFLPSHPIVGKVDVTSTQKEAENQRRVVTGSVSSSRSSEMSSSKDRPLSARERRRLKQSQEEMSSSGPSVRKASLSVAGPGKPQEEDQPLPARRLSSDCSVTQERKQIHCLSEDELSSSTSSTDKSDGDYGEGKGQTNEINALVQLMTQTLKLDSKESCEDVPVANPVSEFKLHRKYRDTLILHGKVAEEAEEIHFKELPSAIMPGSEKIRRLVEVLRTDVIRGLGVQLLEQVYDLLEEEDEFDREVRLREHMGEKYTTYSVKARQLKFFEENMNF
Serine/threonine-protein kinase 4 (Homo sapiens), sequence (Q13043 whole entry): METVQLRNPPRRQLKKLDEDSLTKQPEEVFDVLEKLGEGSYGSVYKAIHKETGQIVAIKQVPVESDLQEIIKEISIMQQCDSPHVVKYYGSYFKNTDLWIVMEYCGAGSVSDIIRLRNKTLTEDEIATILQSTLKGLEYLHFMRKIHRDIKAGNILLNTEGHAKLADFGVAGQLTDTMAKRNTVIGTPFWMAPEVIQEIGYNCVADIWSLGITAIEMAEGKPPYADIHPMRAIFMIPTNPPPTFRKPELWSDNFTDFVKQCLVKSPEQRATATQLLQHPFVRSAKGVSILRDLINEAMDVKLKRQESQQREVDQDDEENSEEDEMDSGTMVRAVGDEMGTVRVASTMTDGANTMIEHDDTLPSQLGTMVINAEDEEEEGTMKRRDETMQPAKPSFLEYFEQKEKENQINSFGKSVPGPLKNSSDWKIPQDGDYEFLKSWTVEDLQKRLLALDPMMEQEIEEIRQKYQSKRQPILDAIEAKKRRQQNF
Mitogen-activated protein kinase 15 (Homo sapiens), sequence (Q8TD08 whole entry): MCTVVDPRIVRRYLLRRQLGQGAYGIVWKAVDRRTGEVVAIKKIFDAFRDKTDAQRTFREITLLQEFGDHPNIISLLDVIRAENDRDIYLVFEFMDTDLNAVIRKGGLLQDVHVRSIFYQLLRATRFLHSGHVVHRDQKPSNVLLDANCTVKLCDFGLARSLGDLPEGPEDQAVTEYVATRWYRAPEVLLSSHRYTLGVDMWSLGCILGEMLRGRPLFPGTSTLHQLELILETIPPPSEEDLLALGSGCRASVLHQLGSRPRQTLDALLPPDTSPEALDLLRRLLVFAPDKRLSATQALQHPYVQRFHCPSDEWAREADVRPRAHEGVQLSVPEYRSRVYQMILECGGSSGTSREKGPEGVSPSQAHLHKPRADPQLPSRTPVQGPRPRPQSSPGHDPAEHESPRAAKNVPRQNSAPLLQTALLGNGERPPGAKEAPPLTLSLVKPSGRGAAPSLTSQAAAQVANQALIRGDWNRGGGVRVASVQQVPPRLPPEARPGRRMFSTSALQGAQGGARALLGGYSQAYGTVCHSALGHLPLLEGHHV

COc1cccc(CNC(=O)c2nc3scc(COCc4ccc(C(=O)O)cc4)c3c(=O)[nH]2)c1 [T-26c]
inactive: residual activity [1] 84.9% | residual activity [2] 87.2% | residual activity [3] 74.9% | inhibition [4] 8.18% | residual activity [5] 82.2% | residual activity [6] 83.9% | residual activity [7] 71.8% | residual activity [8] 100% | residual activity [9] 75% | residual activity [10] 62.6% | residual activity [11] 79.7% | residual activity [12] 84.2% | residual activity [13] 82.4% | residual activity [14] 96.4% | residual activity [15] 83.8% | residual activity [16] 99.6% | residual activity [17] 66.8% | residual activity [18] 74% | residual activity [19] 90% | residual activity [20] 100% | residual activity [21] 85.4% | residual activity [22] 67.6% | residual activity [23] 99.9% | residual activity [24] 72.5% | residual activity [25] 61.5% | residual activity [26] 100% | residual activity [27] 82.5% | residual activity [28] 100% | residual activity [29] 84.4% | residual activity [30] 94.5% | residual activity [31] 63.5% | residual activity [32] 100% | residual activity [33] 86.1% | residual activity [34] 92% | residual activity [35] 83.7% | residual activity [36] 93.6% | residual activity [37] 96.7% | residual activity [38] 100% | residual activity [39] 89.2% | residual activity [40] 95.5% | residual activity [41] 100% | residual activity [42] 89.5% | residual activity [43] 65.6% | residual activity [44] 100% | residual activity [45] 100%
